“And” between values parts separate entries of the source, which are not always exact repeats. Equal values may be shown once. “Also recorded” adds a separate entry of the source. Read-outs that look alike come from different tables or passages of the source.
Columns and labels:
[1] = target: T1, tetrameric streptavidin (SA-647) (Streptomyces avidinii, UniProt P22629); test: Bead pull-down: SA-647 retained by compound-displaying TentaGel beads, plate reader; assay type: binding; conditions: SA-647 500 nM
T1 construct: purchased ThermoFisher S3235
T1 sequence (P22629 37-163 limits assumed): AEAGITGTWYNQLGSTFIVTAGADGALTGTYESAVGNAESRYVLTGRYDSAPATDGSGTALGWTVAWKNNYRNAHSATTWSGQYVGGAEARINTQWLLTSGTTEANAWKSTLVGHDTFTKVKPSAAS
From the text: Compounds 2 and 3 were then constructed on 10 μm TentaGel beads via straightforward solid-phase synthesis, along with acetylated beads, which as a “blank” (Figure c). TentaGel beads consist of an amino-polystyrene core onto which is grafted a thick layer of amine-terminated PEG chains. An additional mini-PEG spacer was incorporated prior to coupling the compounds to further improve spatial accessibility and aqueous display of the compounds (see Experimental Section for detailed synthesis). The beads were incubated with AlexaFluor 647-conjugated SA (SA-647) in phosphate-buffered saline supplemented with 0.05% Tween 20 (PBST) for 1 h at room temperature in the dark. Following incubation, the beads were washed thoroughly (see Experimental Section for a detailed protocol), then resuspended in PBST. The amount of fluorescent SA retained by the resin was analyzed using a Tecan multiwell plate reader equipped with appropriate excitation and emission filters (excitation at 650 nm, emission at 665 nm).
(§1) General notes: • At each step, contents were mixed by pipetting up and down 3–5 times. • All steps following the addition of SA-647 were conducted in the dark. • SA-647 and mSA-647 were purchased from commercial sources; (SA-647: ThermoFisher cat#S3235, mSA-647: Millipore SAE178).
A 96-well Multiscreen hydrophilic assay plate (MilliporeSigma, MSBVN12) was activated by treating each well with 150 μL of 70% (v/v) ethanol in water. The solvent was removed under vacuum, and the wells were washed with PBST (3 × 150 μL). Fresh PBST (150 μL) was then added to each well.
The plate was drained and washed again with PBST (3 × 150 μL), followed by the addition of 150 μL PBST per well. Plates were shaken overnight at ambient temperature on an orbital plate shaker.
The next day, wells were drained and incubated with 150 μL of a 1:1 (v/v) solution of PBST:PBS blocking buffer (Thermo Scientific, 37538) for 1 h at room temperature. After removal of the blocking buffer, 100 μL PBST was added to each well and mixed thoroughly. A 20 μL aliquot from each well was transferred to a black 384-well flat-bottom plate (Corning, 3820) for background (blank) measurements.
The remaining PBST was removed, and the beads were incubated with SA-647 (500 nM in 1:1 PBST/blocking buffer, 150 μL per well) for 1 h at room temperature. After incubation, wells were washed with PBST while shaking (3 × 20 min). A final 150 μL PBST wash was performed and drained. Fresh PBST (80 μL) was added to each well, and the contents were transferred to labeled PCR tubes. Samples were briefly vortexed and mixed by pipetting.
Each sample was transferred to a black 384-well plate in triplicate (3 × 20 μL per well). The plate was sealed with a foil sticker and centrifuged at 250g for 1 min. Fluorescence intensity was measured using a TECAN plate reader. Background fluorescence (from blank wells) was subtracted prior to further data analysis.

[2] = target: T2, Streptavidin (SA) (Streptomyces avidinii, UniProt P22629); test: SPR, soluble compound binding to immobilized streptavidin
T2 construct: purchased
T2 sequence (P22629 25-183, species assumed): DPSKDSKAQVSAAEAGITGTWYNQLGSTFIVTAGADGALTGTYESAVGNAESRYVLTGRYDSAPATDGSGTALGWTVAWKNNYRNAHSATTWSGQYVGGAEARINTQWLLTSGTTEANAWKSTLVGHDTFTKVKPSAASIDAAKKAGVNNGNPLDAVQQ
Protocol: The SPR binding affinity testing was conducted using the BIAcore 1K system (Cytiva) with BIAcore Insight Control Software. Streptavidin (50 μg/mL in 10 mM pH 5.0 NaOAc) was immobilized on a CM5 sensor chip (Cytiva) via amide coupling, using HBS-EP+ (10 mM HEPES, 150 mM NaCl, 3 mM EDTA, and 0.05% v/v Surfactant P20) as the immobilization buffer. Approximately 1000 RU of immobilization was achieved. Testing compounds were evaluated using the multiple-cycle kinetic/affinity method in PBS-P+ running buffer (20 mM phosphate buffer, 2.7 mM KCl, 137 mM NaCl, and 0.05% Surfactant P20), with a 200 s association time, 200 s dissociation time, and a flow rate of 45 μL/min. Binding affinities for the testing compounds were determined by fitting the sensor grams to both the 1:1 binding kinetics and steady-state affinity models provided in the BIAcore Insight Evaluation Software.

[3] = target: T3, SA-647 (Streptomyces avidinii, UniProt P22629); test: Dose-dependent binding of SA-647 to bead-displayed ligands by FACS (MFI); conditions: SA-647 0.1 to 1000 nM
T3 construct: purchased ThermoFisher S3235
T3 sequence (P22629 37-163 limits assumed): as the sequence (P22629 37-163 limits assumed) above
Protocol: We next asked if the bead binding assay could distinguish complexes with different affinities for SA. 10 μm TentaGel beads displaying compound 2, compound 3, the oxazole analogue of compound 2 (Figure S4), or the SA-binding macrocycle 1 shown in Figure a were exposed to different concentrations of SA-647 ranging from 0.1 to 1000 nM. After washing, the intensity of fluorescence retained on the beads was measured using a flow cytometer, and the results were plotted as the mean fluorescence intensity (MFI) on the beads vs the protein concentration. […] Macrocycle 1, which binds SA with a K D of about 600 nM in solution (more than 1000 times more tightly than compound 2), binds SA-647 on resin at far lower concentrations than does compound 2.

[4] = test system: monomeric streptavidin (mSA-647); test: Bead pull-down with monomeric streptavidin; assay type: binding; conditions: mSA-647 500 nM, 1 h, PBST, room temperature
Protocol: To investigate this, compound 2-displaying, compound 3-displaying, or blank (acetylated) beads were incubated with tetrameric SA-647 or iFluor647-conjugated monomeric streptavidin (mSA-647). Biotin-displaying beads (Figure S3) were also included in this experiment as a high-affinity comparator. […] No binding of either protein to compound 3-displaying beads was observed.
3 Stable binding of tetrameric SA to beads displaying compound 2 is highly dependent on avidity. […] Each compound was represented by 1 million 10 μm TentaGel beads, with 250,000 beads used per technical replicate. (b) Effect of ligand functionalization density on compound binding. Beads were functionalized with compound 2, compound 3, or biotin at varying surface densities (100% to 5%) and incubated with SA-647 (500 nM) for 1 h in PBST at room temperature as previously, before recording the fluorescence intensity.
as §1

[5] = target: T1, tetrameric streptavidin (SA-647); test: Bead pull-down: SA-647 retained by compound-displaying TentaGel beads, plate reader; assay type: binding; conditions: SA-647 (100 nM), plate reader
[6] = soluble mini-PEG attached compound, immobilized SA, read-out: KD (SPR)

SMILES | binding of mSA-647 to bead-displayed ligand [4] | Kd [2, 6] [µM] | SA-647 retained by bead-displayed grown compound relative to parent compound 2 [5] | further results
CC(=O)N(Cc1ccccc1)Cc1nc(C(=O)N(C)CC(=O)NCCOCCOCC(=O)NCC(N)=O)cs1 [Compound 3] | No binding |  |  | Fluorescence intensity, Average ([1]; 12 replicates, after background subtraction, Z' calculation): 177; binding of SA-647 to bead-displayed compound (fluorescence) ([1]; 1 h, PBST, room temperature, after washing): failed to retain more labeled SA than the acetylated “blank” beads; also recorded: No binding; Fluorescence intensity, individual replicate ([1]; replicates 1-12, after background subtraction, Z' calculation): 76 and 119 and 260 and 226 and 50 and 156 and 122 and 81 and 136 and 180 and 145 and 568; binding to SA by SPR (in words) ([2]; soluble compound, immobilized SA): no detectable binding; dose-dependent binding of SA-647 (MFI by flow cytometer) [3]: not
CN(CC(=O)NCCOCCOCC(=O)NCC(N)=O)C(=O)c1csc(CN(Cc2cccnc2)C(=O)c2ccc(F)c(C#N)c2)n1 [Compound 5] |  |  |  | Kd ([2]; supplementary CSV, solution dissociation constants, read-out: KD for SA): 160 µM
O=C(O)CCCC[C@@H]1SC[C@@H]2NC(=O)N[C@@H]21 [biotin, reference compound] | readily observable |  |  | dependence of SA-647 retention on ligand density ([1]; site functionalization 100% to 5%): insensitive to ligand density
CN(CC(=O)NCCOCCOCC(=O)NCC(N)=O)C(=O)c1csc(CN(Cc2cccnc2)C(=O)c2ccc(F)c(F)c2)n1 [Compound 6] |  | 330 | captured less SA-647 than bead-displayed 4 but more than bead-displayed 2 | 
CN(CC(=O)NCCOCCOCC(=O)NCC(N)=O)C(=O)c1csc(CN(Cc2cccnc2)C(=O)c2ccc3[nH]ccc3c2)n1 [Compound 7] |  | 780 | retained less SA-647 than compound 2 | 
CN(CC(=O)NCCOCCOCC(=O)NCC(N)=O)C(=O)c1csc(CN(Cc2cccnc2)C(=O)C2CCC(=O)C2)n1 (stereo not shown) [Compound 4] |  | 90 | retained the most SA-647 | improvement of KD over the parent compound 2 ([2]; SPR, immobilized SA): 7.8 fold

Source: publication PMC12598851, “Exploiting Avidity Effects for the Discovery of Low Affinity Protein-Binding Fragments” (Journal of Medicinal Chemistry, 2025)
